The term TD50 denotes the 50% point of the dose-response relation for the toxic effect studied.

The text below walks through data of PubChem BioAssay AID1745844 (Carcinogenic Potency Database (CPDB), 2022).

“And” between values parts separate entries of the source, which are not always exact repeats. Identical values can stand only once. The source made the active and inactive calls. No rule for the calls is given here.

The subject of this series is rodent lifetime carcinogenesis bioassay, tumor incidence TD50. Put plainly: carcinogenic potency in animals, long-term in vivo studies, CPDB compilation (AID 1745844).

`CCCCCCCC/C=C/CCCCCCCC(=O)OCCOCC(OCCO)C1OCC(OCCO)C1OCCO` (stereo not given): the TD50 is, setting by setting: (mouse, strain B6C3F1, females, in feed, site: any site (literature study), lesion: several types, types named in the paper, dosed 103 weeks, study length 104 weeks) 42900 mg/kg/day (inactive); (mouse, strain B6C3F1, females, in feed, site: lung, lesion: alveolar/bronchiolar adenoma + alveolar/bronchiolar carcinoma, dosed 103 weeks, study length 104 weeks) 332000 mg/kg/day; (rat, strain Fischer 344, females, in feed, site: liver, lesion: hepatocellular adenoma + hepatocellular carcinoma + neoplastic nodule, dosed 103 weeks, study length 104 weeks) 15800 mg/kg/day; (rat, strain Fischer 344, females, in feed, site: liver, lesion: hepatocellular adenoma, dosed 103 weeks, study length 104 weeks) 15800 mg/kg/day (inactive); (rat, strain Fischer 344, males, in feed, site: adrenal medulla, lesion: pheochromocytoma benign, bilateral + pheochromocytoma, malignant + pheochromocytoma, benign, dosed 99 weeks, study length 99 weeks) 2580 mg/kg/day; (rat, strain Fischer 344, males, in feed, site: any site (literature study), lesion: several types, types named in the paper, dosed 99 weeks, study length 99 weeks) 3290 mg/kg/day. Moreover, under “rat, strain Fischer 344, males, in feed, site: liver, lesion: hepatocellular adenoma + hepatocellular carcinoma + neoplastic nodule, dosed 99 weeks, study length 99 weeks”, the TD50 is 217000 mg/kg/day. In addition, the carcinogen call (mouse, strain B6C3F1, males, in feed, site: any site (literature study), lesion: several types, types named in the paper, dosed 103 weeks, study length 104 weeks) is “negative (inactive)”.
As to `CCC=C(CC)[N+](=O)[O-]`, the TD50 reads like this: (mouse, strain Swiss Webster, females, inhaled, site: lung, lesion: adenocarcinoma, dosed 62 weeks, study length 62 weeks) 0.363 mg/kg/day and 0.768 mg/kg/day; (mouse, strain Swiss Webster, females, inhaled, site: lung, lesion: several types, types named in the paper, dosed 62 weeks, study length 62 weeks) 0.687 mg/kg/day; (mouse, strain Swiss, both sexes, inhaled, site: lung, lesion: adenocarcinoma, dosed 62 weeks, study length 62 weeks) 0.346 mg/kg/day; (rat, strain CFN, both sexes, inhaled, site: lung, lesion: undifferentiated carcinoma, dosed 158 weeks, study length 158 weeks) 8.66 mg/kg/day.
Turning to `N`, the carcinogen call was “negative (inactive)” (mouse, strain C3H (MTV+), females, in drinking water, site: mammary gland, lesion: adenocarcinoma, dosed 104 weeks, study length 104 weeks) and “negative (inactive)” (mouse, strain Swiss, females, in drinking water, site: lung, lesion: several types, types named in the paper, dosed 119 weeks, study length 121 weeks). Besides, the TD50 (mouse, strain Swiss, males, in drinking water, site: liver, lesion: several types, types named in the paper, dosed 120 weeks, study length 124 weeks) worked out at 26700 mg/kg/day; the TD50 (mouse, strain Swiss, males, in drinking water, site: lung, lesion: adenocarcinoma, dosed 120 weeks, study length 124 weeks) is 7330 mg/kg/day (inactive); the TD50 (mouse, strain Swiss, males, in drinking water, site: lung, lesion: several types, types named in the paper, dosed 120 weeks, study length 124 weeks) is 15300 mg/kg/day (inactive).
As for `CN(N=O)c1ccc([N+](=O)[O-])cc1`, the carcinogen call (rat, strain Fischer 344, males, in drinking water, site: any site (literature study), lesion: several types, types named in the paper, dosed 50 weeks, study length 114 weeks) was “negative (inactive)”. The TD50 (rat, strain Fischer 344, males, in drinking water, site: liver, lesion: hyperplastic nodule, dosed 50 weeks, study length 114 weeks) is 5.87 mg/kg/day (inactive).
Take `CC(C)(CCCOc1ccc(OCCCC(C)(C)C(=O)O)c(-c2ccccc2)c1)C(=O)O`: the TD50 is 90.6 mg/kg/day (mouse, strain B6C3F1, females, in feed, site: liver, lesion: hepatocellular adenoma, dosed 104 weeks, study length 104 weeks); 402 mg/kg/day (mouse, strain B6C3F1, females, in feed, site: liver, lesion: hepatocellular carcinoma, dosed 104 weeks, study length 104 weeks); 72.3 mg/kg/day (mouse, strain B6C3F1, females, in feed, site: liver, lesion: several types, types named in the paper, dosed 104 weeks, study length 104 weeks); 107 mg/kg/day (mouse, strain B6C3F1, males, in feed, site: liver, lesion: hepatocellular adenoma, dosed 104 weeks, study length 104 weeks); 167 mg/kg/day (mouse, strain B6C3F1, males, in feed, site: liver, lesion: hepatocellular carcinoma, dosed 104 weeks, study length 104 weeks); 45 mg/kg/day (mouse, strain B6C3F1, males, in feed, site: liver, lesion: several types, types named in the paper, dosed 104 weeks, study length 104 weeks).
Consider `O=C1N(CCO)CCN1N=Cc1ccc([N+](=O)[O-])o1`, for which the TD50 (rat, strain Sprague-Dawley, females, in feed, site: any site (literature study), lesion: several types, types named in the paper, dosed 46 weeks, study length 66 weeks) is 18 mg/kg/day and the TD50 (rat, strain Sprague-Dawley, females, in feed, site: mammary gland, lesion: adenocarcinoma, dosed 46 weeks, study length 66 weeks) is 16.7 mg/kg/day.
Consider `NC(=O)N(CCO)N=O`, for which the TD50 is 0.603 mg/kg/day (mouse, strain Swiss, females, in drinking water, site: all sites, lesion: lymphoma, dosed 50 weeks, study length 51 weeks); 1.97 mg/kg/day (mouse, strain Swiss, females, in drinking water, site: lung, lesion: adenoma, dosed 50 weeks, study length 51 weeks); 1.27 mg/kg/day (mouse, strain Swiss, males, in drinking water, site: all sites, lesion: lymphoma, dosed 50 weeks, study length 51 weeks); 0.353 mg/kg/day (mouse, strain Swiss, males, in drinking water, site: any site (literature study), lesion: one or several types, types not named, dosed 50 weeks, study length 51 weeks); 0.382 mg/kg/day (mouse, strain Swiss, males, in drinking water, site: lung, lesion: adenoma, dosed 50 weeks, study length 51 weeks); 3.15 mg/kg/day (rat, strain Fischer 344, females, by gavage, site: Zymbal's gland, lesion: carcinoma, dosed 37 weeks, study length 60 weeks). Also, the TD50 is 1.53 mg/kg/day (rat, strain Fischer 344, females, by gavage, site: colon, lesion: adenoma, dosed 37 weeks, study length 60 weeks); 3.15 mg/kg/day (rat, strain Fischer 344, females, by gavage, site: forestomach, lesion: squamous-cell carcinoma, dosed 37 weeks, study length 60 weeks); 0.452 mg/kg/day (rat, strain Fischer 344, females, by gavage, site: mammary gland, lesion: adenocarcinoma, dosed 37 weeks, study length 60 weeks); 0.879 mg/kg/day (rat, strain Fischer 344, males, by gavage, site: Zymbal's gland, lesion: carcinoma, dosed 37 weeks, study length 55 weeks); 0.568 mg/kg/day (rat, strain Fischer 344, males, by gavage, site: Zymbal's gland, lesion: several types, types named in the paper, dosed 37 weeks, study length 55 weeks); 0.983 mg/kg/day (rat, strain Fischer 344, males, by gavage, site: colon, lesion: adenocarcinoma, dosed 37 weeks, study length 55 weeks). The TD50 was 0.24 mg/kg/day (rat, strain Fischer 344, males, by gavage, site: colon, lesion: several types, types named in the paper, dosed 37 weeks, study length 55 weeks); 0.203 mg/kg/day (rat, strain Fischer 344, males, by gavage, site: forestomach, lesion: several types, types named in the paper, dosed 37 weeks, study length 55 weeks); 0.637 mg/kg/day (rat, strain Fischer 344, males, by gavage, site: forestomach, lesion: squamous-cell carcinoma, dosed 37 weeks, study length 55 weeks); 0.602 mg/kg/day (rat, strain Fischer 344, males, by gavage, site: lung, lesion: malignant tumor, dosed 37 weeks, study length 55 weeks); 0.0776 mg/kg/day (rat, strain Fischer 344, males, by gavage, site: lung, lesion: several types, types named in the paper, dosed 37 weeks, study length 55 weeks); 3.16 mg/kg/day (rat, strain MRC-Wistar, females, in drinking water, site: all sites, lesion: B-cell lymphoma, dosed 39 weeks, study length 85 weeks). For the same molecule, the TD50 is 3.16 mg/kg/day (inactive) (rat, strain MRC-Wistar, females, in drinking water, site: all sites, lesion: myelocytic leukemia, dosed 39 weeks, study length 85 weeks); 0.32 mg/kg/day (rat, strain MRC-Wistar, females, in drinking water, site: any site (literature study), lesion: one or several types, types not named, dosed 39 weeks, study length 85 weeks); 10 mg/kg/day (rat, strain MRC-Wistar, females, in drinking water, site: liver, lesion: one or several types, types not named, dosed 39 weeks, study length 85 weeks); 1.56 mg/kg/day (rat, strain MRC-Wistar, males, in drinking water, site: all sites, lesion: B-cell lymphoma, dosed 39 weeks, study length 85 weeks); 2.03 mg/kg/day (rat, strain MRC-Wistar, males, in drinking water, site: all sites, lesion: lymphocytic lymphoma, dosed 52 weeks, study length 70 weeks); 2.03 mg/kg/day (rat, strain MRC-Wistar, males, in drinking water, site: all sites, lesion: malignant lymphoma, dosed 52 weeks, study length 70 weeks). In addition, the TD50 is, setting by setting: (rat, strain MRC-Wistar, males, in drinking water, site: all sites, lesion: myelocytic leukemia, dosed 39 weeks, study length 85 weeks) 2.02 mg/kg/day (inactive); (rat, strain MRC-Wistar, males, in drinking water, site: any site (literature study), lesion: one or several types, types not named, dosed 39 weeks, study length 85 weeks) 0.195 mg/kg/day; (rat, strain MRC-Wistar, males, in drinking water, site: any site (literature study), lesion: several types, types named in the paper, dosed 52 weeks, study length 70 weeks) 0.36 mg/kg/day; (rat, strain MRC-Wistar, males, in drinking water, site: bone, lesion: osteosarcoma, dosed 39 weeks, study length 85 weeks) 1.56 mg/kg/day; (rat, strain MRC-Wistar, males, in drinking water, site: bone, lesion: osteosarcoma, dosed 52 weeks, study length 70 weeks) 1.52 mg/kg/day; (rat, strain MRC-Wistar, males, in drinking water, site: liver, lesion: one or several types, types not named, dosed 39 weeks, study length 85 weeks) 2.77 mg/kg/day. Also, the TD50 reads like this: (rat, strain Wistar, males, in drinking water, site: all sites, lesion: B-cell lymphoma, dosed 90 weeks, study length 90 weeks) 15.9 mg/kg/day; (rat, strain Wistar, males, in drinking water, site: all sites, lesion: myelocytic leukemia, dosed 90 weeks, study length 90 weeks) 3.66 mg/kg/day; (rat, strain Wistar, males, in drinking water, site: any site (literature study), lesion: one or several types, types not named, dosed 90 weeks, study length 90 weeks) 0.576 mg/kg/day; (rat, strain Wistar, males, in drinking water, site: kidney, lesion: one or several types, types not named, dosed 90 weeks, study length 90 weeks) 4.93 mg/kg/day; (rat, strain Wistar, males, in drinking water, site: lung, lesion: one or several types, types not named, dosed 90 weeks, study length 90 weeks) 1.59 mg/kg/day; (rat, strain Wistar, males, in drinking water, site: mammary gland, lesion: adenocarcinoma, dosed 90 weeks, study length 90 weeks) 4.14 mg/kg/day.
For `NNc1nc(-c2ccc(N)cc2)cs1`, the TD50 (mouse, strain Swiss, females, in feed, site: all sites, lesion: lymphocytic leukemia, dosed 46 weeks, study length 66 weeks) is 11.3 mg/kg/day; the TD50 (mouse, strain Swiss, females, in feed, site: any site (literature study), lesion: several types, types named in the paper, dosed 46 weeks, study length 66 weeks) came to 11.3 mg/kg/day; the TD50 (rat, strain Sprague-Dawley, females, in feed, site: all sites, lesion: lymphoblastic lymphoma, dosed 46 weeks, study length 75 weeks) is 7.09 mg/kg/day; the TD50 (rat, strain Sprague-Dawley, females, in feed, site: any site (literature study), lesion: several types, types named in the paper, dosed 46 weeks, study length 75 weeks) is 0.582 mg/kg/day; the TD50 (rat, strain Sprague-Dawley, females, in feed, site: mammary gland, lesion: adenocarcinoma, dosed 46 weeks, study length 75 weeks) is 1.02 mg/kg/day; the TD50 (rat, strain Sprague-Dawley, females, in feed, site: mammary gland, lesion: several types, types named in the paper, dosed 46 weeks, study length 75 weeks) is 1.03 mg/kg/day.
With `CC(C)COC(=O)c1ccc(O)cc1`, the TD50 was 12300 mg/kg/day (inactive) (mouse, strain ICR/Jcl, females, in feed, site: any site (literature study), lesion: several types, types named in the paper, dosed 102 weeks, study length 106 weeks); 37200 mg/kg/day (inactive) (mouse, strain ICR/Jcl, females, in feed, site: lung, lesion: one or several types, types not named, dosed 102 weeks, study length 106 weeks); 6570 mg/kg/day (inactive) (mouse, strain ICR/Jcl, males, in feed, site: any site (literature study), lesion: several types, types named in the paper, dosed 102 weeks, study length 104 weeks); 26300 mg/kg/day (inactive) (mouse, strain ICR/Jcl, males, in feed, site: liver, lesion: one or several types, types not named, dosed 102 weeks, study length 104 weeks). The carcinogen call reads like this: (mouse, strain ICR/Jcl, females, in feed, site: liver, lesion: one or several types, types not named, dosed 102 weeks, study length 106 weeks) “negative (inactive)”; (mouse, strain ICR/Jcl, males, in feed, site: lung, lesion: one or several types, types not named, dosed 102 weeks, study length 104 weeks) “negative (inactive)”.
